Laboratory results as given in ChEMBL document CHEMBL5303766, “Data for DCP probe FHT-2344” (2022).

What was measured:
[1] = molecular target: Serine/threonine-protein kinase OSR1 (Homo sapiens) (UniProt O95747); experiment: OXSR1 SGC Tm panel (DSF); settings: for ΔTm: Compound concentration 10.0 uM
[2] = molecular target: Kappa-type opioid receptor (Homo sapiens) (UniProt P41145); settings: Compound concentration 10.0 uM
[3] = molecular target: Serine/threonine-protein kinase WNK1 (Homo sapiens) (UniProt Q9H4A3); experiment: WNK1 SGC Tm panel (DSF); settings: for ΔTm: Compound concentration 10.0 uM
[4] = molecular target: 5-hydroxytryptamine receptor 6 (Homo sapiens) (UniProt P50406); settings: Compound concentration 10.0 uM
[5] = molecular target: Ribosomal protein S6 kinase alpha-5 (Homo sapiens) (UniProt O75582); experiment: RPS6KA5 SGC Tm panel (DSF); settings: for ΔTm: Compound concentration 10.0 uM
Chain of Ribosomal protein S6 kinase alpha-5 (Homo sapiens) (O75582 whole entry, looked up): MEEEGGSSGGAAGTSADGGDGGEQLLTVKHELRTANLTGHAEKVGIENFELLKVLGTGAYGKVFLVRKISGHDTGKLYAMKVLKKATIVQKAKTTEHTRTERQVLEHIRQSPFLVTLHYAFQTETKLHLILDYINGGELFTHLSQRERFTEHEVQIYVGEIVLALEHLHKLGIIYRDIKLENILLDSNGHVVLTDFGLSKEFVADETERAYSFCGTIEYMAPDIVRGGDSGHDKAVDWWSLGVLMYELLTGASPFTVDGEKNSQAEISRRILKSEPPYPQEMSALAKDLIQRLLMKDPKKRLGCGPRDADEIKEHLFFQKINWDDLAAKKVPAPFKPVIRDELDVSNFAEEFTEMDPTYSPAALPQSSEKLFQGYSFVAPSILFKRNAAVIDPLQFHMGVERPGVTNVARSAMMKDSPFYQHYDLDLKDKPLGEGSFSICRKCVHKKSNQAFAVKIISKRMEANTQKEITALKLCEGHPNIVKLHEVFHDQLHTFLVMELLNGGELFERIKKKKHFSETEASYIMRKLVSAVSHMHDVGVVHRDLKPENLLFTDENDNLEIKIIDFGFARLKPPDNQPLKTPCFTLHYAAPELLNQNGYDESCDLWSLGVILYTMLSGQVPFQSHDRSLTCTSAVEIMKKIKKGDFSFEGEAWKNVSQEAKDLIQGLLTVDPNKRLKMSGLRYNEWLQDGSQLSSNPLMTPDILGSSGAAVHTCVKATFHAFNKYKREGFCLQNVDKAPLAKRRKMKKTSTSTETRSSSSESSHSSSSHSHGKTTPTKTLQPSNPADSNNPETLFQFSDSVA

[6] = molecular target: Fibroblast growth factor receptor 1 (Homo sapiens) (UniProt P11362); experiment: FGFR1 SGC Tm panel (DSF); settings: for ΔTm: Compound concentration 10.0 uM
[7] = molecular target: Serine/threonine-protein kinase 38-like (Homo sapiens) (UniProt Q9Y2H1); experiment: STK38L SGC Tm panel (DSF); settings: for ΔTm: Compound concentration 10.0 uM
Chain of Serine/threonine-protein kinase 38-like (Homo sapiens) (Q9Y2H1 2-464 limits assumed): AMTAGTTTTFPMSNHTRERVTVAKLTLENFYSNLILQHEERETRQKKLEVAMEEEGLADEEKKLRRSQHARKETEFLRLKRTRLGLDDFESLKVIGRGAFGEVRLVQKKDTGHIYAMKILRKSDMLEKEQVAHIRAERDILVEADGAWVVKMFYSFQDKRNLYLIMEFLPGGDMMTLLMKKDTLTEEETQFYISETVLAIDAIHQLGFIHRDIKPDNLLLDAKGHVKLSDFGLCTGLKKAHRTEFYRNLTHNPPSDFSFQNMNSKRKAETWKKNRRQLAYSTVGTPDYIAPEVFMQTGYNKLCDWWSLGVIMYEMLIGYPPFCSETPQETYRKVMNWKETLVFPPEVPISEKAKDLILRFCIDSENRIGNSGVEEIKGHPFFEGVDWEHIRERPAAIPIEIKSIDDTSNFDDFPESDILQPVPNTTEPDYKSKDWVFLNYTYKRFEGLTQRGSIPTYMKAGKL

[8] = molecular target: BMP-2-inducible protein kinase (Homo sapiens) (UniProt Q9NSY1); experiment: BMP2K SGC Tm panel (DSF); settings: for ΔTm: Compound concentration 10.0 uM
Chain of BMP-2-inducible protein kinase (Homo sapiens) (Q9NSY1 whole entry, looked up): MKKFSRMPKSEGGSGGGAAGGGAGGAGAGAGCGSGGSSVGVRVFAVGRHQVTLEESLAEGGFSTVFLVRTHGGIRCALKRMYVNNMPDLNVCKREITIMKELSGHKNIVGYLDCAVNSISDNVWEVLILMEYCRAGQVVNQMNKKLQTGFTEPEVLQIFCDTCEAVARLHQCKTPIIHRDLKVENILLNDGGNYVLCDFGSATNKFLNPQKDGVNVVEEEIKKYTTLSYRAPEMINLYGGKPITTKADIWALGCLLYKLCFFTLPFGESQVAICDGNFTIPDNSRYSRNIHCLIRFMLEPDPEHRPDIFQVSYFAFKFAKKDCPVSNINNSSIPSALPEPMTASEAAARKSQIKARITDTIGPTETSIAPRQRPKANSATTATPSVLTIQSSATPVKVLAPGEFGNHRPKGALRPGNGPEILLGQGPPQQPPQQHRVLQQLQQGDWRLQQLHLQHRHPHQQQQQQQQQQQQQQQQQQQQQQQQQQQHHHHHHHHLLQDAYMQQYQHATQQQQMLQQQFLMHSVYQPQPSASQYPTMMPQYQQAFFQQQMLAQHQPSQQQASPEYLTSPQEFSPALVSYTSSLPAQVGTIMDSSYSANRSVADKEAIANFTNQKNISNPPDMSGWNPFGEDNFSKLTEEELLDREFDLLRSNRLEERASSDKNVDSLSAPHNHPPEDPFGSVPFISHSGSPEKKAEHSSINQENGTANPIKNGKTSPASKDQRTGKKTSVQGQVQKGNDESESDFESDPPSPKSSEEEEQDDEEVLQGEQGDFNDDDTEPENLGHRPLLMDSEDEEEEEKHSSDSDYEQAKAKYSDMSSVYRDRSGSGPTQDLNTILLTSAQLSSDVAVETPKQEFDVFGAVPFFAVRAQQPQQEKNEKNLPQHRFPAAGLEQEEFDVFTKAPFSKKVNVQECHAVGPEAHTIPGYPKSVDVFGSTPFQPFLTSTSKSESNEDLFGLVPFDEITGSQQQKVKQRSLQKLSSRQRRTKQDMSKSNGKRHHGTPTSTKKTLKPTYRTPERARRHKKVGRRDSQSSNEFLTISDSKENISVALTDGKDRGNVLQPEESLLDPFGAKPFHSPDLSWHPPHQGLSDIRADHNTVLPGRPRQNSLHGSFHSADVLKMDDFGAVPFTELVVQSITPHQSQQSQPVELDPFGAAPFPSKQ

[9] = molecular target: 5-hydroxytryptamine receptor 2C (Homo sapiens) (UniProt P28335); settings: Compound concentration 10.0 uM
[10] = molecular target: Cyclin-dependent kinase 16 (Homo sapiens) (UniProt Q00536); experiment: PCTK1 SGC Tm panel (DSF); settings: for ΔTm: Compound concentration 10.0 uM
[11] = molecular target: Ribosomal protein S6 kinase alpha-1 (Homo sapiens) (UniProt Q15418); experiment: RPS6KA1 SGC Tm panel (DSF); settings: for ΔTm: Compound concentration 10.0 uM
[12] = molecular target: D(2) dopamine receptor (Homo sapiens) (UniProt P14416); settings: Compound concentration 10.0 uM
[13] = molecular target: Mitogen-activated protein kinase 14 (Homo sapiens) (UniProt Q16539); experiment: MAPK14 SGC Tm panel (DSF); settings: for ΔTm: Compound concentration 10.0 uM
Chain of Mitogen-activated protein kinase 14 (Homo sapiens) (Q16539 whole entry): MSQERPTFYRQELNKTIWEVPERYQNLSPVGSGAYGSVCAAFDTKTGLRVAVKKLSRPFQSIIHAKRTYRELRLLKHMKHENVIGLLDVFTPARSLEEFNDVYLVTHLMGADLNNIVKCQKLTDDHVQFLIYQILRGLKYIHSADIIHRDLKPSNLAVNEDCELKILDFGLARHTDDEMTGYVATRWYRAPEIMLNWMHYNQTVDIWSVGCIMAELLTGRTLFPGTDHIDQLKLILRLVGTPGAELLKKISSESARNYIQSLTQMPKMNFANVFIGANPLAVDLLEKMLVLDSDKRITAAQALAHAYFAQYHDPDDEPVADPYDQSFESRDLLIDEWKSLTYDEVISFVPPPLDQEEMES

[14] = molecular target: MAP/microtubule affinity-regulating kinase 3 (Homo sapiens) (UniProt P27448); experiment: MARK3 SGC Tm panel (DSF); settings: for ΔTm: Compound concentration 10.0 uM
Chain of MAP/microtubule affinity-regulating kinase 3 (Homo sapiens) (P27448 whole entry, looked up): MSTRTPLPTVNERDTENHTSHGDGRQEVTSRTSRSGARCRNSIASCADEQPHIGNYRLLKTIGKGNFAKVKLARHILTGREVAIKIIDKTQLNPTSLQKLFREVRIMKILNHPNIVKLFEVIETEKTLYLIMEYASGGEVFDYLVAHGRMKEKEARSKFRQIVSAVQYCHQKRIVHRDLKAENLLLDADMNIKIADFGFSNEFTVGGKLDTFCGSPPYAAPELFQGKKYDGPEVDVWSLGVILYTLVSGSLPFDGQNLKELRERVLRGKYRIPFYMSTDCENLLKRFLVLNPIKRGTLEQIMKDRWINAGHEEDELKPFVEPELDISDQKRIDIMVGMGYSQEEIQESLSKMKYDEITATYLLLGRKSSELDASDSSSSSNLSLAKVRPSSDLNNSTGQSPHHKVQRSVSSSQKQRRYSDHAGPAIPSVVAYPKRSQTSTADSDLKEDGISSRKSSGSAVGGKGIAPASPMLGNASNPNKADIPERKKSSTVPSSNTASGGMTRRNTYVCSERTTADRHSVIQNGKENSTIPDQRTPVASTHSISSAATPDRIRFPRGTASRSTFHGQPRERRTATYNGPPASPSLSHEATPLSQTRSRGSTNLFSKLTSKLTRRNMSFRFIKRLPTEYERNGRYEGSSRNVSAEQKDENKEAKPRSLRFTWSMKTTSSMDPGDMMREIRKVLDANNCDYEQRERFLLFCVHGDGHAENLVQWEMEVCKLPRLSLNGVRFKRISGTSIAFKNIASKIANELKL

[15] = molecular target: Fibroblast growth factor receptor 3 (Homo sapiens) (UniProt P22607); experiment: FGFR3 SGC Tm panel (DSF); settings: for ΔTm: Compound concentration 10.0 uM
[16] = molecular target: Dual specificity mitogen-activated protein kinase kinase 1 (Homo sapiens) (UniProt Q02750); experiment: MAP2K1 SGC Tm panel (DSF); settings: for ΔTm: Compound concentration 10.0 uM
[17] = molecular target: Membrane-associated tyrosine- and threonine-specific cdc2-inhibitory kinase (Homo sapiens) (UniProt Q99640); experiment: PKMYT1 SGC Tm panel (DSF); settings: Compound concentration 10.0 uM
[18] = molecular target: Serine/threonine-protein kinase PAK 1 (Homo sapiens) (UniProt Q13153); experiment: PAK1 SGC Tm panel (DSF); settings: for ΔTm: Compound concentration 10.0 uM
[19] = molecular target: 5-hydroxytryptamine receptor 1A (Homo sapiens) (UniProt P08908); settings: Compound concentration 10.0 uM
[20] = molecular target: T1, Ephrin type-B receptor 1 (Homo sapiens) (UniProt P54762); experiment: EPHB1 SGC Tm panel (DSF); settings: for ΔTm: Compound concentration 10.0 uM
T1 sequence (whole entry): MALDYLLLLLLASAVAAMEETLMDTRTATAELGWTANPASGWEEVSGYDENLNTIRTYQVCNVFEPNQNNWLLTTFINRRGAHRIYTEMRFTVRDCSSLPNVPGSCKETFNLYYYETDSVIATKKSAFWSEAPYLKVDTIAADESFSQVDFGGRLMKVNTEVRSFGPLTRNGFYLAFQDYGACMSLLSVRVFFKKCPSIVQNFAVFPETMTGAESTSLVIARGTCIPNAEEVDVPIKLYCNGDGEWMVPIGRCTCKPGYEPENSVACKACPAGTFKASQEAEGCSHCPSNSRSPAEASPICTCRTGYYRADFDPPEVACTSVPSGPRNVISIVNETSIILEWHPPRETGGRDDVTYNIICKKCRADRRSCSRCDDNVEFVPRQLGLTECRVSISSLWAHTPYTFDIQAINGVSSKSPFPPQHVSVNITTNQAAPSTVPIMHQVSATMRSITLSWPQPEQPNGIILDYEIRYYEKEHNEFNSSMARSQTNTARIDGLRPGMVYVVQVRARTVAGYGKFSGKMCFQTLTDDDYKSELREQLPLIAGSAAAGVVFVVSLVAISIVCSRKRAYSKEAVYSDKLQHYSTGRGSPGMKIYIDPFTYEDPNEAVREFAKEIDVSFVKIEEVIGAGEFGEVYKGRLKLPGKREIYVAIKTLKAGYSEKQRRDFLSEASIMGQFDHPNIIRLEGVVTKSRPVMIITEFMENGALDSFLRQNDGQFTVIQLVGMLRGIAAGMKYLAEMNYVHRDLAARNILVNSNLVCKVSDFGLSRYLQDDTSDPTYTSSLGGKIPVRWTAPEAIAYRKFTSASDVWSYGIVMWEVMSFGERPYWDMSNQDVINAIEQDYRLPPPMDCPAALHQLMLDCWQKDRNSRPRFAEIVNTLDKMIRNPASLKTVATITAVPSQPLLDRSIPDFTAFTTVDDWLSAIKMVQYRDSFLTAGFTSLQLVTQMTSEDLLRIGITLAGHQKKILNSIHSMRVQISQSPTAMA

[21] = molecular target: Death-associated protein kinase 1 (Homo sapiens) (UniProt P53355); experiment: DAPK1 SGC Tm panel (DSF); settings: for ΔTm: Compound concentration 10.0 uM
Chain of Death-associated protein kinase 1 (Homo sapiens) (P53355 whole entry, looked up): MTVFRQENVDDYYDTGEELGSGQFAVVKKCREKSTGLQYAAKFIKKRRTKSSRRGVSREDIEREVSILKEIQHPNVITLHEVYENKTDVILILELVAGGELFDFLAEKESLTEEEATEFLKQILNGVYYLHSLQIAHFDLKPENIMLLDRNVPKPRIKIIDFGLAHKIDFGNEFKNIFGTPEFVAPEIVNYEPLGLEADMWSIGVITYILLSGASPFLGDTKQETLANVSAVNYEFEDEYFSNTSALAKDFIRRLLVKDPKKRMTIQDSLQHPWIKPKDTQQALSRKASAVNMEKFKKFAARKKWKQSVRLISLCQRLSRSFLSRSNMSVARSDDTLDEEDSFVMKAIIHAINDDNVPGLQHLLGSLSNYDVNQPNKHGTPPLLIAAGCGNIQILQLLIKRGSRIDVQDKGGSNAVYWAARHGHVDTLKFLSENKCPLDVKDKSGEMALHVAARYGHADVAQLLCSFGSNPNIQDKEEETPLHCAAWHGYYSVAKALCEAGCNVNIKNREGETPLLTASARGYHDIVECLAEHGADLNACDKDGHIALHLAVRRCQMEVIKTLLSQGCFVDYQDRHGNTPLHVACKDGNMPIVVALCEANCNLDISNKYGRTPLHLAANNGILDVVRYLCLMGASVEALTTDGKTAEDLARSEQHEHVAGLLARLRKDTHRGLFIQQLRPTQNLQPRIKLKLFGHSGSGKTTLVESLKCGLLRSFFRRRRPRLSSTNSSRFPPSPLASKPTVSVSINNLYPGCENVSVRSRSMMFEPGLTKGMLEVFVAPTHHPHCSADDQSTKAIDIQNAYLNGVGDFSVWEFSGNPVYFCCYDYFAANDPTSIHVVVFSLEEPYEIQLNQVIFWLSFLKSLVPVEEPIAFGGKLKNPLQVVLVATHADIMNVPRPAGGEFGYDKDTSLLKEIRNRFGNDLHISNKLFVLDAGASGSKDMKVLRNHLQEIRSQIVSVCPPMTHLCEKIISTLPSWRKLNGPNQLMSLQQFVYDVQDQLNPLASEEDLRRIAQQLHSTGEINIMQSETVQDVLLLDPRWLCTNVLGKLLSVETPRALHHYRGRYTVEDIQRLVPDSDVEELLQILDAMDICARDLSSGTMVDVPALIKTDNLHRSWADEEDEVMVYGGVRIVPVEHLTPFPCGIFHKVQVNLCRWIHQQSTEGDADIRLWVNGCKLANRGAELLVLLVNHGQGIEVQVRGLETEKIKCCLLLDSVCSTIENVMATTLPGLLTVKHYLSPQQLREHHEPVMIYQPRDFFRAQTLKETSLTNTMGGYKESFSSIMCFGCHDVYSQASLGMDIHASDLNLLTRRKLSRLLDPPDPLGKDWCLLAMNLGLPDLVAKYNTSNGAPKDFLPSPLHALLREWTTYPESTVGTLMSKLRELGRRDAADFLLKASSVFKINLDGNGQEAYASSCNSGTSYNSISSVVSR

delta Tm Staurosporine positive control [1]	ΔTm [1]	inhibition [2] [%]	delta Tm Staurosporine positive control [3]	ΔTm [3]	inhibition [4] [%]	delta Tm Staurosporine positive control [5]	ΔTm [5]	delta Tm Staurosporine positive control [6]	ΔTm [6]	delta Tm Staurosporine positive control [7]	ΔTm [7]	delta Tm Staurosporine positive control [8]	ΔTm [8]	inhibition [9] [%]	delta Tm Staurosporine positive control [10]	ΔTm [10]	delta Tm Staurosporine positive control [11]	ΔTm [11]	inhibition [12] [%]	SMILES	other results
5.06	-0.0355	10.7	0.638	0.232	8.9	13.1	1.16	5.65	-0.0579	10.8	0.451	18.7	0.214	14.2	7.03	-1.23	3.76	0.166	6.68	COC[C@H](NC(=O)c1ccn(S(C)(=O)=O)c1)C(=O)Nc1nc(-c2cccc(-c3ccn(C)n3)c2)cs1	delta Tm Staurosporine positive control [13]: 1.14; ΔTm [13]: -0.0969; delta Tm Staurosporine positive control [14]: 19.1; ΔTm [14]: 1.12; delta Tm Staurosporine positive control [15]: 11.8; ΔTm [15]: 0.361; delta Tm Staurosporine positive control [16]: 5.5; ΔTm [16]: -0.11; ΔTm [17]: -0.638; delta Tm Staurosporine positive control [18]: 7.66; ΔTm [18]: -0.233; inhibition [19]: 29.7%; delta Tm Staurosporine positive control [20]: 6.19; ΔTm [20]: -0.318; delta Tm Staurosporine positive control [21]: 9.19; ΔTm [21]: -0.136
5.06	1.31	4.84	0.638	0.361	16.4	13.1	-0.0945	5.65	-0.166	10.8	0.237	18.7	0.335	18.3	7.03	-1.44	3.76	0.223	6.41	C[C@H](NC(=O)c1cn(C2(C#N)CC2)cn1)C(=O)Nc1nc(-c2cccc(-c3ccn(C)n3)c2)cs1	delta Tm Staurosporine positive control [13]: 1.14; ΔTm [13]: -0.0712; delta Tm Staurosporine positive control [14]: 19.1; ΔTm [14]: 1.73; delta Tm Staurosporine positive control [15]: 11.8; ΔTm [15]: 1.77; delta Tm Staurosporine positive control [16]: 5.5; ΔTm [16]: -0.126; ΔTm [17]: -0.216; delta Tm Staurosporine positive control [18]: 7.66; ΔTm [18]: 0.443; inhibition [19]: 23%; delta Tm Staurosporine positive control [20]: 6.19; ΔTm [20]: 0.229; delta Tm Staurosporine positive control [21]: 9.19; ΔTm [21]: 0.0306
